Test results reported in ChEMBL document CHEMBL4351032, “Design, synthesis, and biological evaluation of 4-((6,7-dimethoxyquinoline-4-yl)oxy)aniline derivatives as FLT3 inhibitors for the treatment of acute myeloid leukemia” (Bioorg Med Chem Lett, 2019).

Tests used:
HL-60 [1] = experiment: Antiproliferative activity against human HL60 cells harboring wild type FLT3 assessed as inhibition of cell growth incubated for 72 hrs by CCK-8 assay; assay type: functional, cell-based; details: HL-60, 72 h
MV4-11 = experiment: Antiproliferative activity against human MV4-11 cells harboring FLT3-ITD assessed as inhibition of cell growth incubated for 72 hrs by CCK-8 assay; assay type: functional, cell-based; details: MV4-11, 72 h
[2] = target: T1, Receptor-type tyrosine-protein kinase FLT3 (Homo sapiens, UniProt P36888); experiment: Inhibition of FLT3 (unknown origin) using peptide as substrate preincubated with enzyme for 10 mins followed by substrate addition further incubated for 1 hr by mobility shift assay
T1 sequence (P36888 whole entry): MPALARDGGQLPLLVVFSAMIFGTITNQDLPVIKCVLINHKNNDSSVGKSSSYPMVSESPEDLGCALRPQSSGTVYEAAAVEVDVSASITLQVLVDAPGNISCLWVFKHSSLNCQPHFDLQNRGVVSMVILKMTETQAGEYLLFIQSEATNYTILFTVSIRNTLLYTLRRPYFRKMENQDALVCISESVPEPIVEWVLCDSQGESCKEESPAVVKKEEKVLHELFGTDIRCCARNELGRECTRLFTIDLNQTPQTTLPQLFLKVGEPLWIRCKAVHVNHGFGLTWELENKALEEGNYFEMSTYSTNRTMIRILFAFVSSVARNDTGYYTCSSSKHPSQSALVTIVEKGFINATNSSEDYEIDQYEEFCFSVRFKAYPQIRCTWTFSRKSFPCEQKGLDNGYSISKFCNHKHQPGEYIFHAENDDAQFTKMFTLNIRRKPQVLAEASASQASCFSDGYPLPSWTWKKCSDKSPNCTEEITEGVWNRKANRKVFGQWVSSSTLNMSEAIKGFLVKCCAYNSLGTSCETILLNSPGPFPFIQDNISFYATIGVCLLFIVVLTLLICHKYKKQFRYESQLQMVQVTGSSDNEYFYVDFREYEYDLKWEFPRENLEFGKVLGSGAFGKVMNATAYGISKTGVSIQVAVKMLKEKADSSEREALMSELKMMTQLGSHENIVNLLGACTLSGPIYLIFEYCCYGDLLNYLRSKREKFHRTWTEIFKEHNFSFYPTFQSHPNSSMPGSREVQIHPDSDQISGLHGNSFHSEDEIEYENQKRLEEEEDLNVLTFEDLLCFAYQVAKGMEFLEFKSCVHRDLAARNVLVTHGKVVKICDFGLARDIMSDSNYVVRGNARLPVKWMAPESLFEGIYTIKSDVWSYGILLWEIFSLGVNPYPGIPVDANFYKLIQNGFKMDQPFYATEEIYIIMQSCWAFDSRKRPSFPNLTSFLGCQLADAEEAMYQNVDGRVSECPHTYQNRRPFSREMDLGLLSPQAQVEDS

HL-60 [3] = experiment: Potency index, ratio of cabozantinib IC50 to compound IC50 for human HL60 cells incubated for 72 hrs by CCK-8 assay; assay type: functional
[4] = target: T1, Receptor-type tyrosine-protein kinase FLT3; experiment: Inhibition of FLT3 (unknown origin)

COc1cc2nccc(Oc3ccc(NC(=O)N/N=C/c4cn(-c5cccc(C)c5)nn4)cc3)c2cc1OC
IC50 (HL-60 [1]): 25.7 µM | IC50 (MV4-11): 19.3 µM

COc1cc2nccc(Oc3ccc(NC(=O)N/N=C/c4cn(-c5ccc(F)cc5)nn4)cc3)c2cc1OC
IC50 (HL-60 [1]): 21.7 µM | IC50 (MV4-11): 21.4 µM

COc1cc2nccc(Oc3ccc(NC(=O)N/N=C/c4cn(-c5ccccc5Cl)nn4)cc3)c2cc1OC
IC50 (HL-60 [1]): > 50 µM | IC50 (MV4-11): 48.4 µM

COc1cc2nccc(Oc3ccc(NC(=O)N/N=C/c4cn(-c5cccc(F)c5)nn4)cc3)c2cc1OC
IC50 (HL-60 [1]): 8.91 µM | IC50 (MV4-11): 5.8 µM | IC50 [2]: 0.384 µM | Ratio IC50 (HL-60 [3]): 2.52

COc1cc2nccc(Oc3ccc(N/C(=N/c4ccc(Cl)c(Cl)c4)C(F)(F)F)cc3)c2cc1OC
IC50 (HL-60 [1]): > 50 µM

COc1cc2nccc(Oc3ccc(NC(=O)N/N=C/c4cn(-c5ccccc5)nn4)cc3)c2cc1OC
IC50 (HL-60 [1]): 41.3 µM | IC50 (MV4-11): 38.7 µM

COc1cc2nccc(Oc3ccc(NC(=O)C4(C(=O)Nc5ccc(F)cc5)CC4)cc3)c2cc1OC [CABOZANTINIB]
IC50 (HL-60 [1]): 22.5 µM | IC50 (MV4-11): 15.2 µM

COc1ccc(/N=C(/Nc2ccc(Oc3ccnc4cc(OC)c(OC)cc34)cc2)C(F)(F)F)cc1
IC50 (HL-60 [1]): 36.2 µM

COc1cc2nccc(Oc3ccc(NC(=O)N/N=C/c4cn(-c5ccccc5Br)nn4)cc3)c2cc1OC
IC50 (HL-60 [1]): > 50 µM | IC50 (MV4-11): > 50 µM

COc1cc2nccc(Oc3ccc(N/C(=N/c4ccc(OC(F)(F)F)cc4)C(F)(F)F)cc3)c2cc1OC
IC50 (HL-60 [1]): 32.7 µM

COc1cc2nccc(Oc3ccc(NC(=O)N/N=C/c4cn(-c5cccc(C(F)(F)F)c5)nn4)cc3)c2cc1OC
IC50 (HL-60 [1]): > 50 µM | IC50 (MV4-11): 49.1 µM

COc1cc2nccc(Oc3ccc(N/C(=N/c4ccc(Cl)c(C(F)(F)F)c4)C(F)(F)F)cc3)c2cc1OC
IC50 (HL-60 [1]): > 50 µM

COc1cc2nccc(Oc3ccc(NC(=O)N/N=C/c4cn(-c5ccccc5OC)nn4)cc3)c2cc1OC
IC50 (HL-60 [1]): 14.2 µM | IC50 (MV4-11): 8.29 µM | IC50 [2]: 0.312 µM

COc1cc2nccc(Oc3ccc(N/C(=N/c4ccc([N+](=O)[O-])cc4)C(F)(F)F)cc3)c2cc1OC
IC50 (HL-60 [1]): > 50 µM

COc1cccc(-n2cc(/C=N/NC(=O)Nc3ccc(Oc4ccnc5cc(OC)c(OC)cc45)cc3)nn2)c1
IC50 (HL-60 [1]): 18.8 µM | IC50 (MV4-11): 13.8 µM | IC50 [2]: > 1 µM

COc1cc2nccc(Oc3ccc(NC(=O)N/N=C/c4cn(-c5cccc(Cl)c5)nn4)cc3)c2cc1OC
IC50 (HL-60 [1]): 21.1 µM | IC50 (MV4-11): 13.4 µM | IC50 [2]: > 1 µM

COc1cc2nccc(Oc3ccc(N/C(=N/c4ccccc4)C(F)(F)F)cc3)c2cc1OC
IC50 (HL-60 [1]): 44.6 µM

COc1cc2nccc(Oc3ccc(N/C(=N/c4ccc(F)cc4)C(F)(F)F)cc3)c2cc1OC
IC50 (HL-60 [1]): 48.9 µM

COc1cc2nccc(Oc3ccc(NC(=O)N/N=C/c4cn(-c5ccccc5F)nn4)cc3)c2cc1OC
IC50 (HL-60 [1]): 16.4 µM | IC50 (MV4-11): 13.6 µM | IC50 [2]: > 1 µM

COc1cc2nccc(Oc3ccc(N/C(=N/c4ccc(C)cc4)C(F)(F)F)cc3)c2cc1OC
IC50 (HL-60 [1]): 46.2 µM

COc1ccc(-n2cc(/C=N/NC(=O)Nc3ccc(Oc4ccnc5cc(OC)c(OC)cc45)cc3)nn2)cc1
IC50 (HL-60 [1]): 19.3 µM | IC50 (MV4-11): 16.3 µM

COc1cc2nccc(Oc3ccc(N/C(=N/c4cccc(C(F)(F)F)c4)C(F)(F)F)cc3)c2cc1OC
IC50 (HL-60 [1]): > 50 µM

COc1cc2c(Oc3ccc(NC(=O)c4nn(-c5ccccc5)c(=O)cc4C)cc3F)ccnc2cc1OCCCN1CCOCC1
IC50 [4]: 0.00928 µM

COc1cc2nccc(Oc3ccc(N/C(=N/c4cccc(Cl)c4)C(F)(F)F)cc3)c2cc1OC
IC50 (HL-60 [1]): > 50 µM
